Results as given in PubChem BioAssay (NCI).
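Five concentrations, 48 hours, 96-well plates. GI50 = concentration required for 50% inhibition of growth. TGI: concentration producing complete growth inhibition.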

Legend:
Experiment in all cases: NCI tumour cell line growth inhibition, 48 h
[1] = system: OVCAR-4 ovarian
[2] = system: KM12 colon
[3] = system: HCT-15 colon
[4] = system: HCT-116 colon
[5] = system: UACC-62 melanoma
[6] = system: SF-539 CNS
[7] = system: NCI-H460 lung
[8] = system: RPMI-8226 leukemia
[9] = system: A549 NSCLC
[10] = system: RXF 393 renal

| SMILES | TGI [1] [µM] | TGI [2] [µM] | TGI [3] [µM] | TGI [4] [µM] | TGI [5] [µM] | TGI [6] [µM] | TGI [7] [µM] | TGI [8] [µM] | TGI [9] [µM] | GI50 [1] [µM] | GI50 [2] [µM] | GI50 [3] [µM] | GI50 [5] [µM] | GI50 [6] [µM] | GI50 [8] [µM] | GI50 [9] [µM] | GI50 [10] [µM] | TGI [10] [µM] | GI50 [4] [µM] | GI50 [7] [µM] |
| --- | --- | --- | --- | --- | --- | --- | --- | --- | --- | --- | --- | --- | --- | --- | --- | --- | --- | --- | --- | --- |
| O=C(C/C(CCC(=O)N(Cc1ccccc1)Cc1ccccc1)=N/Nc1ccc([N+](=O)[O-])cc1[N+](=O)[O-])c1ccccc1 | > 100 | > 100 | > 100 | > 100 | > 100 | > 100 | > 100 | > 100 | > 100 | – | – | – | – | – | – | – | – | – | – | – |
| COc1cccc(/C(C)=N/NC(=O)CSc2nc3ccccc3c(=O)n2CCc2ccc(S(N)(=O)=O)cc2)c1 | 4.28 | 7.67 | > 100 | – | 33.5 | 3.98 | – | > 100 | 3.93 | 1.85 | 2.8 | 18.4 | 8.32 | 1.88 | 0.943 | 2.01 | 2.71 | 7.7 | – | – |
| CCOC(=O)/C(=C/c1ccc(N(CCC#N)CCC#N)cc1C)NC(=O)/C=C/c1ccccc1 | – | > 100 | > 100 | > 100 | > 100 | > 100 | > 100 | > 100 | > 100 | – | – | – | – | – | – | – | – | > 100 | – | – |
| COc1ccccc1NS(=O)(=O)c1ccc2oc(SC(C)C)nc2c1 | 77.6 | 49 | > 100 | > 100 | > 100 | 56.1 | > 100 | 24.4 | 88.6 | 8.67 | 18.5 | 29.4 | 18.5 | 18.6 | 2.4 | 16.3 | – | – | 8.35 | 15.7 |
| C=C(C)C(=O)O[C@@H]1C/C(C)=C\[C@H](OC(C)=O)C[C@](C)(O)/C=C2/OC(=O)C(COC(C)=O)=C21 | – | 23.5 | 0.786 | 1.7 | 2.1 | > 28.5 | 2.35 | 1.73 | > 23.3 | – | – | – | – | – | – | – | – | – | – | – |
| CC12CCC3c4cc(Br)c(O)c(Br)c4CCC3C1CCC2O (stereo unspecified) | – | 26.6 | – | > 100 | 33.1 | 36.3 | – | – | 40.9 | – | – | – | – | – | – | – | – | 40.5 | – | – |
| CN(C)CCNC(=O)c1cccc2ccc(-c3ccc(-c4ccccc4)cc3)nc12 | 6.74 | 5.6 | 4.14 | 3.4 | 32.2 | 3.31 | 2.98 | – | 7.66 | – | – | – | – | – | – | – | – | 6.15 | – | – |
| COc1ccc2[nH]c3c(C)cc([N+](=O)[O-])c(C)c3c2c1 | > 100 | 45.4 | > 100 | 58.7 | – | > 100 | 39.7 | 62.7 | 75.3 | – | – | – | – | – | – | – | – | 41.9 | – | – |
| CC(=O)NNc1nc(C)c(C(=O)NNC(=O)C(=O)Nc2ccc([N+](=O)[O-])cc2C#N)s1 | > 100 | > 100 | > 100 | > 100 | > 100 | > 100 | > 100 | > 100 | > 100 | – | – | – | – | – | – | – | – | – | – | – |
| Cc1cn(-c2ccc(S(C)(=O)=O)cc2)c(-c2ccc(Cl)cc2)n1 | > 100 | > 100 | > 100 | > 100 | > 100 | > 100 | > 100 | > 100 | > 100 | > 100 | > 100 | > 100 | > 100 | > 100 | > 100 | > 100 | – | – | > 100 | > 100 |
